Read-outs that look alike come from different tables or passages of the source.
Key:
hamster SUR1 = biological target: T1, hamster SUR1 (Cricetus cricetus, UniProt Q09427); assay: In vitro binding affinity to rodent KATP channels: SUR1 ([3H]glibenclamide displacement, COS cell membranes)
T1 construct: expressed in transfected cells; host or cells: COS-1 cells, transient (pcDNA vector)
Protocol: 1. In Vitro Binding Affinity of the Test Compounds to Rodent KATP Channels
Competitive binding experiments were performed to characterize the affinity of the test compounds for the binding sites for sulfonylureas and KATP channel openers (KCOS) on hamster SUR1. To assess the affinity for the sulfonylurea site, membranes from COS-cells transiently expressing hamster SUR1 were incubated in the presence of [^3H]glibenclamide with increasing concentrations of test compounds. […] For each test compound four displacement curves were measured (+/−MgATP from the human and hamster isoform). Per curve 9-15 distinct concentrations were tested covering the relevant range. All measurements were repeated at least 5 times in independent experiments.
(§1) [^3H]glibenclamide (specific activity 51 Ci mmol^−1) was obtained from NEN (Dreieich, Germany). Where needed, stock solutions were prepared in dimethylsulfoxide with a final solvent concentration in the media below 1%.
(§2) SUR- or Kir6.x isoforms were used either subcloned in the pcDNA (hamster SUR1, mouse Kir6.2) or pCMV vector (rat SUR2A, SUR2B).
(§3) For transfection, the cells were incubated 4 hours in a Tris-buffered salt solution containing DNA (5-10 μg/ml) plus DEAE-dextran (1 mg/ml), 2 min in HEPES-buffered salt solution plus dimethylsulfoxide (10%) and 4 hours in DMEM-HG plus chloroquine (100 μM). Cells were then returned to DMEM-HG plus 10% FCS. […] For binding experiments, resuspended membranes (final protein concentration 5-50 μg/ml) were incubated in “Tris-buffer” (50 mM, pH 7.4) containing either [^3H]glibenclamide (final concentration 0.3 nM or 3 nM and nonspecific binding defined by 100 nM or 1 μM glibenclamide for SUR1 or SUR2Y1205S-isoforms, respectively) or [^3H]P1075 (final concentration 3 nM, nonspecific binding defined by 100 μM pinacidil) and increasing concentrations of the test compounds. The free Mg^2+ concentration were kept close to 0.7 mM. […] Incubations were carried out for 1 h at room temperature and were terminated by rapid filtration through Whatman GF/B filters.
(§4) The inhibition constant (Ki value) of the test substances was calculated from the respective IC50 value, and was stated as the negative logarithmic value thereof (pKi).

rat SUR2A = rat SUR2A (Rattus norvegicus, UniProt Q63563); assay: In vitro binding affinity to rodent KATP channels: SUR2A ([3H]P1075 / [3H]glibenclamide displacement, COS cell membranes)
Chain of rat SUR2A (Q63563 whole entry): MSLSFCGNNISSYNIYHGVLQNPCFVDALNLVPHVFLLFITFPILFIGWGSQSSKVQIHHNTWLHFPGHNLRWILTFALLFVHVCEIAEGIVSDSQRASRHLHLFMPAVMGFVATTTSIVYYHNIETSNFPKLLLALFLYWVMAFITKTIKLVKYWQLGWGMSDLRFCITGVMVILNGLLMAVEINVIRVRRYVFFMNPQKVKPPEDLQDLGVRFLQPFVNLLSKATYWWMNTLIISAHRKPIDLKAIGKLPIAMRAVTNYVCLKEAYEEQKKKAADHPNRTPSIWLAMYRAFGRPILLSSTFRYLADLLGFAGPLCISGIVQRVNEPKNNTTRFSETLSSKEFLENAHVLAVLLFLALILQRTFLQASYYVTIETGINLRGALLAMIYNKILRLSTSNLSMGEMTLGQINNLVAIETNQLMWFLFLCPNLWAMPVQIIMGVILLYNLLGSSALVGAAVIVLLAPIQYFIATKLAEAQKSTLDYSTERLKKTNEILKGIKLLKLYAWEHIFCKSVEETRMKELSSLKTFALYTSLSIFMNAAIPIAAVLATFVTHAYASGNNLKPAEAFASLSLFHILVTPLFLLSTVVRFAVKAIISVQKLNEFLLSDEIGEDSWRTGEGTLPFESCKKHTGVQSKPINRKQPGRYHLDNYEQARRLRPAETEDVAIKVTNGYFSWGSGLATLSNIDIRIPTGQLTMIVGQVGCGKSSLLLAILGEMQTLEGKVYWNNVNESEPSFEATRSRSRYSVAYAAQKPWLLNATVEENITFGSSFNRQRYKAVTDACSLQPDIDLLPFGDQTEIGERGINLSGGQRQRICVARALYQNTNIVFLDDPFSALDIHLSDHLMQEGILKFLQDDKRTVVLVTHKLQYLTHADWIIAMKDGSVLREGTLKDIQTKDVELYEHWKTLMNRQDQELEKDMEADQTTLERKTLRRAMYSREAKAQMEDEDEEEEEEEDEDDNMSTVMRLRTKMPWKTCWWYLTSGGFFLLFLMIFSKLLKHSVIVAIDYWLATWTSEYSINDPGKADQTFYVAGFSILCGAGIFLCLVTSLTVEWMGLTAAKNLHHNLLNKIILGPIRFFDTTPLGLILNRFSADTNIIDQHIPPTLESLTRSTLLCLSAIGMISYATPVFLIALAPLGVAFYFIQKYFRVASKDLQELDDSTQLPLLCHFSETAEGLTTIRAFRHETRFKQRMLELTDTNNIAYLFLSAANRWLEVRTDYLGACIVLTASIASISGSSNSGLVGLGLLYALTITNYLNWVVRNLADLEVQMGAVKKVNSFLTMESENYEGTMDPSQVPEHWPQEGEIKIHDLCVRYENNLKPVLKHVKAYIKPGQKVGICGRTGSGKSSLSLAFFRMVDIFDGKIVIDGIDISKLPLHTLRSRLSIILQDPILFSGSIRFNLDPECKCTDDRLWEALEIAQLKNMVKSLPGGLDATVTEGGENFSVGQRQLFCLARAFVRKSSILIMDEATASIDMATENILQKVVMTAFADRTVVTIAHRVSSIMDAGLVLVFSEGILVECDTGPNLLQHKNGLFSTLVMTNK
Protocol: Therefore, two strategies can be used to detect binding to the sulfonylurea site on SUR2A.
Membranes from COS-cells transiently expressing rat SUR2A were incubated in the presence of the radioligands with increasing concentrations of test compounds as described above. […] For each test compound four displacement curves were measured (displacement of [^3H]P1075 from the rat isoform of the wild type receptor and displacement of [^3H]glibenclamide from the rat isoform of SUR2AY1205S). Per curve 9-15 distinct concentrations were tested covering the relevant range. All measurements were repeated at least 5 times in independent experiments.
as §1, §2, §3, §4

[1] = hamster SUR1 in COS cell membranes, read-out: Affinity to SUR 1 (converted)
[2] = rat SUR2A in COS cell membranes

T1 sequence (Q09427 whole entry): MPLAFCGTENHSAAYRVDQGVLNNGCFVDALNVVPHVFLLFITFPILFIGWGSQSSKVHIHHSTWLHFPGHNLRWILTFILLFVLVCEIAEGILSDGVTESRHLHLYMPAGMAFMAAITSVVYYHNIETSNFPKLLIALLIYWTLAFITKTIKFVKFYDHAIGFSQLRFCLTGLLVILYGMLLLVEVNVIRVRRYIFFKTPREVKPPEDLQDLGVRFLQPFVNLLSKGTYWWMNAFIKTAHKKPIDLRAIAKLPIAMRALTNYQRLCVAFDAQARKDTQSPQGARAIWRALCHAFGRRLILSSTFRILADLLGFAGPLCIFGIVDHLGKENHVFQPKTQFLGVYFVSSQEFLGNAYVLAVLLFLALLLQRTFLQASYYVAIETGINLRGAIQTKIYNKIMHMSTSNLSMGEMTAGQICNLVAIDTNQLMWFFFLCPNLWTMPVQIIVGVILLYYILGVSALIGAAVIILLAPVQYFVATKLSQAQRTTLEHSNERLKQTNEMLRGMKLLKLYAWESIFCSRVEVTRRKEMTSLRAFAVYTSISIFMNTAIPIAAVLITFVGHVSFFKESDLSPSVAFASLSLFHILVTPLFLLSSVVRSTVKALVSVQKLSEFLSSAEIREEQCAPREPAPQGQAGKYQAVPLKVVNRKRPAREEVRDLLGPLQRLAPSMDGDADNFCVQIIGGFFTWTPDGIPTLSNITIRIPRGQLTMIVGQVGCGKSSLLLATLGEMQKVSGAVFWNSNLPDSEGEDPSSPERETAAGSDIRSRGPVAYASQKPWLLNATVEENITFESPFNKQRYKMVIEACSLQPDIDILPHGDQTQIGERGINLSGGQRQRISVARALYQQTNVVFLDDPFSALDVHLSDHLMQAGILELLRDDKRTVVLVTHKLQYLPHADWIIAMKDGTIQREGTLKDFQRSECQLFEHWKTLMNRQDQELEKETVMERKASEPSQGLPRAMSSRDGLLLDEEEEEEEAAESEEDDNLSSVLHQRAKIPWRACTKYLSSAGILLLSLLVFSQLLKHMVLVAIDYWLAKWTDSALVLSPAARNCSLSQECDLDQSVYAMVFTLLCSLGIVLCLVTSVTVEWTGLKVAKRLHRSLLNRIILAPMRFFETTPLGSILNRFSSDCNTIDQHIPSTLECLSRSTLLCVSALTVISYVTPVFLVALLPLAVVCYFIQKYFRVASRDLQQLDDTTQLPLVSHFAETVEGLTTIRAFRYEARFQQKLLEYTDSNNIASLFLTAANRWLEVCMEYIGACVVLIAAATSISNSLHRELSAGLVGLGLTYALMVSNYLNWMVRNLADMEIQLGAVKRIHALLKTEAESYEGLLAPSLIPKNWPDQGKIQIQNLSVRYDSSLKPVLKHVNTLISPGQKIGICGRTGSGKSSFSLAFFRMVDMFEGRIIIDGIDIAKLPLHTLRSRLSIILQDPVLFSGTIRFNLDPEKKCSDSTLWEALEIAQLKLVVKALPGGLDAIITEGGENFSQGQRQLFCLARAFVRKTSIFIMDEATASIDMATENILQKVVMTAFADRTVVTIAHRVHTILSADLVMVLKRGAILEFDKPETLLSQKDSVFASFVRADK

SMILES | Ki (hamster SUR1; [1]) [nM] | pKi (rat SUR2A) | pKi (rat SUR2A; [2]) | Ki (hamster SUR1) [nM]
CNC(=NS(=O)(=O)c1ccc(Cl)cc1)N1CC(c2cccnc2)C(c2ccc(Cl)cc2)=N1 (stereo not shown) | 2510 | 5.4 |  | 
Cn1c(C(=O)NC2CCCCC2)nc(-c2ccc(Cl)cc2Cl)c1-c1ccc(Cl)cc1 | 100000 |  | 4.9 | 
O=S(=O)(N=C(NCC1CCNCC1)N1CC(c2ccccc2)C(c2ccc(Cl)cc2)=N1)c1ccc(Cl)cc1 (stereo not shown) | 631 | 4.9 |  | 
O=S(=O)(N=C(NCC1CC1)N1CC(c2ccccc2)C(c2ccc(Cl)cc2)=N1)N1CCOCC1 (stereo not shown) | 1000 | 5.7 |  | 
CCCCCCC(C)(C)c1ccc([C@@H]2C[C@H](O)CC[C@@H]2CCCO)c(O)c1 (stereo in doubt) [CP55940-entantiomer, 5-(1,1-Dimethyl-heptyl)-2-[5-hydroxy-2-(3-hydroxy-propyl)-cyclohexyl]-phenol, reference compound] | 5010 |  |  | 
CCCCCCC(C)(C)c1cc(OC)c(C2C=C(CO)[C@H]3C[C@@H]2C3(C)C)c(OC)c1 (stereo in doubt) [HU308, {4-[4-(1,1-Dimethyl-heptyl)-2,6-dimethoxy-phenyl]-6,6-dimethyl-bicyclo[3.1.1]hept-2-en-2-yl}-methanol, reference compound] |  |  |  | 398
CCc1c(C(=O)NN2CCCCC2)nc(-c2ccc(Cl)cc2Cl)n1-c1ccc(Br)cc1 [1-(4-Bromo-phenyl)-2-(2,4-dichloro-phenyl)-5-ethyl-1H-imidazol-4-carboxylic acid piperidin-1-ylamide] | 3980 | 5.3 |  | 
CCCCCNC(=O)c1nc(-c2ccc(Cl)cc2Cl)n(-c2ccc(Br)cc2)c1CC [1-(4-Bromo-phenyl)-2-(2,4-dichloro-phenyl)-5-ethyl-1H-imidazole-4-carboxylic acid pentylamide] | 794 |  | 5.6 | 
O=C(NN1CCCCC1)c1nc(-c2ccc(Cl)cc2Cl)n(-c2ccc(Br)cc2)c1Cl [1-(4-Bromo-phenyl)-5-chloro-2-(2,4-dichloro-phenyl)-1H-imidazole-4-carboxylic acid piperidin-1-ylamide] | 3980 | 5.5 |  | 
O=C(NN1CCCCC1)c1nc(-c2ccc(Cl)cc2Cl)n(-c2ccc(Cl)cc2)c1CC(F)(F)F [1-(4-Chloro-phenyl)-2-(2,4-dichloro-phenyl)-5-(2,2,2-trifluoro-ethyl)-1H-imidazole-4-carboxylic acid piperidin-1-ylamide] | 15800 | 5.7 |  | 
CCSc1c(C(=O)NN2CCCCC2)nc(-c2ccc(Cl)cc2Cl)n1-c1ccc(Cl)cc1 [1-(4-Chloro-phenyl)-2-(2,4-dichloro-phenyl)-5-ethylsulfanyl-1H-imidazole-4-carboxylic acid piperidin-1-ylamide] | 7940 | 5.3 |  | 
C[S+]([O-])c1c(C(=O)NN2CCCCC2)nc(-c2ccc(Cl)cc2Cl)n1-c1ccc(Cl)cc1 (stereo not shown) [1-(4-Chloro-phenyl)-2-(2,4-dichloro-phenyl)-5-methanesulfinyl-1H-imidazole-4-carboxylic acid piperidin-1-ylamide] | 100000 |  | 4.9 | 
CS(=O)(=O)c1c(C(=O)NN2CCCCC2)nc(-c2ccc(Cl)cc2Cl)n1-c1ccc(Cl)cc1 [1-(4-Chloro-phenyl)-2-(2,4-dichloro-phenyl)-5-methanesulfonyl-1H-imidazole-4-carboxylic acid piperidin-1-ylamide] | 100000 | 5.0 |  | 
Cc1c(C(=O)NC2CCC(O)CC2)nc(-c2ccc(Cl)cc2Cl)n1-c1ccc(Cl)cc1 (stereo not shown) [1-(4-Chloro-phenyl)-2-(2,4-dichloro-phenyl)-5-methyl-1H-imidazole-4-carboxylic acid (4-hydroxy-cyclo-hexyl)-amide] | 100000 | 5.0 |  | 
CCCCCc1nc(-c2ccc(Cl)cc2Cl)n(-c2ccc(Cl)cc2)c1C [1-(4-Chloro-phenyl)-2-(2,4-dichloro-phenyl)-5-methyl-4-pentyl-1H-imidazole] | 1580 |  | 5.3 | 
O=C(NN1CCCCC1)c1nc(-c2ccc(Cl)cc2Cl)n(-c2ccc(Cl)cc2)c1CN1CCCC1 [1-(4-Chloro-phenyl)-2-(2,4-dichloro-phenyl)-5-pyrrolidin-1-ylmethyl-1H-imidazole-4-carboxylic acid piperidin-1-ylamide] | 100000 |  | 4.6 | 
O=C(NN1CCCCC1)c1nc(-c2ccc(Cl)cc2Cl)n(-c2ccc(Cl)cc2)n1 [1-(4-Chloro-phenyl)-5-(2,4-dichloro-phenyl)-1H-[1,2,4]triazole-3-carboxylic acid piperidin-1-yl-amide] | 10000 | 5.0 |  | 
O=C(NN1CCCCC1)C1=NN(c2ccc(Cl)cc2)C(c2ccccc2)C1 (stereo not shown) [1-(4-Chloro-phenyl)-5-phenyl-4,5-dihydro-1H-pyrazole-3-carboxylic acid piperidin-1-ylamide] | 100000 | 5.1 |  | 
CS(=O)(=O)C(=C1CN(C(c2ccc(Cl)cc2)c2ccc(Cl)cc2)C1)c1cc(F)cc(F)c1 [1-[Bis-(4-chloro-phenyl)-methyl]-3-[(3,5-difluoro-phenyl)-methanesulfonyl-methylene]-azetidine, reference compound] | 5010 | 5.1 |  | 
NC(=O)C1CCN(C(=NS(=O)(=O)c2ccc(Cl)cc2)N2CC(c3ccccc3)C(c3ccc(Cl)cc3)=N2)CC1 (stereo not shown) [1-{(4-Chloro-benzene-sulfonylimino)-[3-(4-chloro-phenyl)-4-phenyl-4,5-dihydro-pyrazol-1-yl]-methyl}-piperidine-4-carboxylic acid amide] | 3160 | 5.2 |  | 
O=C(NN1CCCCC1)c1cn(-c2ccc(C(F)(F)F)cc2)c(-c2ccc(Cl)cc2Cl)n1 [2-(2,4-Dichloro-phenyl)-1-(4-trifluoromethyl-phenyl)-1H-imidazole-4-carboxylic acid piperidin-1-ylamide] | 2510 | 5.3 |  | 
O=C(NN1CCCCC1)c1cn(-c2ccc(C(F)(F)F)cc2)c(-c2ccccc2Cl)n1 [2-(2-Chloro-phenyl)-1-(4-trifluoromethyl-phenyl)-1H-imidazole-4-carboxylic acid piperidin-1-ylamide] | 1000 | 5.7 |  | 
CN1CCCC1CN/C(=N\S(=O)(=O)c1ccc(Cl)cc1)N1CC(c2ccccc2)C(c2ccc(Cl)cc2)=N1 (stereo not shown) [4-Chloro-N-{[3-(4-chloro-phenyl)-4-phenyl-4,5-dihydro-pyrazol-1-yl]-[(1-methyl-pyrrolidin-2-ylmethyl)-amino]-methylene}-benzenesulfonamide] |  | 5.1 |  | 
CN/C(=N\S(=O)(=O)c1ccc(Cl)cc1)N1C[C@@H](c2ccccc2)C(c2ccc(Cl)cc2)=N1 [4-Chloro-N-{[3-(4-chloro-phenyl)-4-phenyl-4,5-dihydro-pyrazol-1-yl]-methylamino-methylene}-benzenesulfonamide] | 1000 |  |  | 
CCCCCCC(C)(C)c1cc(O)c2c(c1)OC(C)(C)[C@@H]1CC=C(CO)CC21 (stereo partly shown) [HU-210, 3-(1,1-Dimethyl-heptyl)-9-hydroxymethyl-6,6-dimethyl-6a,7,10,10a-tetra hydro-6H-enzo[c]chromen-1-ol, reference compound] | 794 |  |  | 
CCCCCOc1c(OC)ccc2cc(C(=O)NCc3ccc4c(c3)OCO4)c(=O)[nH]c12 [JTE-907, 7-Methoxy-2-oxo-8-pentyloxy-1,2-di-hydro-quinoline-3-carboxylic acid (benzo[1,3]dioxol-5-ylmethyl)-amide, reference compound] | 794 |  |  | 
Cc1c(NC(=O)c2ccccc2)nc(-c2ccc(Cl)cc2Cl)n1-c1ccc(Cl)cc1 [N-[1-(4-Chloro-phenyl)-2-(2,4-dichloro-phenyl)-5-methyl-1H-imidazol-4-yl]-benzamide] | 2000 |  |  | 
CNC(=NS(=O)(=O)N1CCCCC1)N1C[C@H](c2ccccc2)C(c2ccc(Cl)cc2)=N1 [Piperidine-1-sulfonic acid [3-(4-chloro-phenyl)-4-phenyl-4,5-dihydro-pyrazol-1-yl]-methylamino-methyleneamide] | 1580 |  |  | 
Cc1ccc(Cn2nc(C(=O)N[C@@H]3C(C)(C)[C@@H]4CC[C@@]3(C)C4)cc2-c2ccc(Cl)c(C)c2)cc1 [SR 144528, reference compound] | 126 |  |  | 

Source: patent publication US20070254863A1 (priority 2006, published 2007)
